Source: PMC12257073 (Cancer Research Communications, 2025)
Where two headings read alike, the source gives them in different places.

Experiments:
[1] = test system: TP53-mutated AML; details: cited from earlier work
[2] = Adverse events (treatment-related and all-cause) and dose-limiting toxicities, NCI CTCAE version 4.0; details: all treated patients, TP-0903 + decitabine
Method: The phase 1b portion of the study used a standard 3 + 3 dose-escalation design with a starting dose level 1 (DL1) of 37 mg oral daily TP-0903 (Supplementary Table S2) based on experience with 50 mg oral daily as a single agent in patients with solid tumors ([25]). Dose-limiting toxicities (DLT) were evaluated to establish the dose brought forward for an expansion cohort (phase 2). Seven patients were enrolled in the phase 1b study, which was completed in January 2021 with the decision to move forward with an expansion cohort of 37 mg oral daily. Across the phase 1b and phase 2 studies, 15 patients were enrolled and started on 37 mg TP-0903 oral daily on days 1 to 21 (group 1). […] One additional patient was enrolled at this time but was inadvertently started on 25 mg TP-0903 oral daily on days 1 to 21. […] In May 2021, an amendment was approved to allow enrollment of a new group 2 at 25mg oral daily on days 1 to 21 of TP-0903 (DL-1) in stage 2 of the phase 2 study.
Clinical response was assessed according to the modified 2017 European LeukemiaNet AML criteria ([26]). The primary endpoint was achievement of CR within six cycles of therapy. Secondary endpoints included toxicity, duration of response, OS, and the proportion of eligible patients who effectively transitioned to allogeneic stem cell transplantation. Exploratory endpoints included pharmacokinetics (PK), correlative genetic, and biochemical data; correlations between morphologic remission, spectral flow cytometry, and mutational remission; and duration of remission or survival. […] Adverse events (AE) were graded according to the NCI Common Terminology Criteria for Adverse Events version 4.0 ([27]).

c1cn2cc(-c3ccc4cn[nH]c4c3)nc(Nc3ccc(N4CCOCC4)cc3)c2n1 [entospletinib]
CR + CRi rate ([1]; entospletinib and a 10-day course of decitabine, complex karyotype AML with a TP53 mutation): 17.1% | Median OS ([1]; entospletinib combined with decitabine, patients with mutant TP53): 6.5 months

magrolimab
Median OS ([1]; magrolimab and azacitidine, TP53-mutated patients): 9.8 months

CC1(C)CCC(CN2CCN(c3ccc(C(=O)NS(=O)(=O)c4ccc(NCC5CCOCC5)c([N+](=O)[O-])c4)c(Oc4cnc5[nH]ccc5c4)c3)CC2)=C(c2ccc(Cl)cc2)C1 [venetoclax]
Median OS ([1]; venetoclax added to HMAs, no difference vs HMA alone): approximately 5.2 months | CR + CRi rate ([1]; venetoclax added to HMAs): 55% | Median OS ([1]; venetoclax and azacitidine, TP53-mutated patients with poor-risk cytogenetics): 5.2 months | Median OS ([1]; venetoclax in combination with azacitidine, older or medically unfit patients with AML): ≤ 17.5 months | CR + CRi rate ([1]; venetoclax plus azacitidine, patients with mutant TP53): 55%

Nc1ncn([C@@H]2O[C@H](CO)[C@@H](O)[C@H]2O)c(=O)n1 [azacitidine]
Median OS ([1]; TP53-mutated patients, azacitidine): 7.9 months

Nc1ncn([C@H]2C[C@H](O)[C@@H](CO)O2)c(=O)n1 [decitabine, reference compound]
Serious AEs related to decitabine [2]: only one patient had a serious AE related to decitabine (grade 3 pneumonia)

COCC1(CO)C(=O)C2CCN1CC2 (stereo not drawn) [eprenetapopt]
Median OS ([1]; eprenetapopt combined with azacitidine): less than 1 year | CR rate ([1]; eprenetapopt, mutant p53): ≤ 17%
